Several values for one entry are separate records, joined by “and”; a condition that tells them apart may be missing. Equal entries are not always repeated.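 Five concentrations, 48 hours, 96-well plates. At the GI50, growth is halved. TGI: concentration producing complete growth inhibition.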
Key:
Test in all cases: NCI-60 cell line screen, 48 h
[1] = system: SR leukemia
[2] = system: SK-MEL-5 melanoma
[3] = system: HCT-116 colon
[4] = system: HOP-92 NSCLC
[5] = system: UO-31 renal
[6] = system: HCT-15 colon
[7] = system: OVCAR-4 ovarian
[8] = system: MOLT-4 leukemia
[9] = system: DU-145 prostate
[10] = system: BT-549 breast

SMILES | TGI [1] | TGI [2] | TGI [3] | TGI [4] | TGI [5] | TGI [6] | TGI [7] | TGI [8] | GI50 [1] | GI50 [3] | GI50 [9] | TGI [9] | GI50 [10] | TGI [10] | GI50 [5] | GI50 [6] | GI50 [7] | GI50 [2] | GI50 [4] | GI50 [8]
CC1NOC(=O)C1N=Nc1cccc(Cl)c1 (stereo unspecified) | 71.5 µM | > 100 µM | > 100 µM | > 100 µM | > 100 µM | 42.6 µM | > 100 µM | 86.7 µM |  |  |  |  |  |  |  |  |  |  |  | 
C=CCC(N[C@@H](CO)c1ccccc1)c1ccc2ccccc2n1 (stereo partly specified) | 65.5 µM |  | > 100 µM |  | > 100 µM | > 100 µM | > 100 µM |  | 17.2 µM | > 100 µM | > 100 µM | > 100 µM | > 100 µM | > 100 µM | 88.2 µM | > 100 µM | > 100 µM |  |  | 
CC1(C)CC(O)CC(C)(C)N1O | > 100 µM | > 100 µM | > 100 µM |  | > 100 µM | > 100 µM | > 100 µM | > 100 µM |  |  |  | > 100 µM |  | > 100 µM |  |  | > 100 µM |  |  | 
COc1ccc(/C=C/C(=N\NC(=O)c2ccccc2)c2sc(Nc3ccc([N+](=O)[O-])cc3)nc2C)cc1OC | > 100 µM |  | > 100 µM | 6.41 µM | 56.6 µM | 28.5 µM | 36.9 µM | > 100 µM |  |  |  |  |  |  |  |  |  |  |  | 
COc1cc(N=Nc2cc(Cc3ccc(N(C)C)cc3)c(N)cc2N(C)C)c2ncccc2c1 |  | 0.714 µM | 1.19 µM | 1.5 µM | 1.97 µM | 1.99 µM | 0.549 µM | 1.22 µM |  | 0.0426 µM | 0.59 µM | 2.17 µM | 1.41 µM | 5.63 µM | 0.252 µM | 0.195 µM | 0.175 µM | 0.227 µM | 0.266 µM | 0.185 µM
CN1C2C=CC(=O)C1C1C(=O)N(c3ccccc3)C(=O)C12 (stereo unspecified) |  | 24.3 µM | 16.2 µM | 0.701 µM | 17.9 µM | 20.3 µM | 38.7 µM | > 100 µM |  | 3.57 µM | 2.34 µM | 6.69 µM |  |  | 3.49 µM | 5.52 µM | 11.7 µM | 11.8 µM | 0.085 µM | 5.99 µM
COC(=O)Cc1cc(=O)n2c3ccccc3n(C)c2c1C#N | > 100 µM | > 100 µM | > 100 µM |  | > 100 µM | > 100 µM | > 100 µM | > 100 µM |  |  |  |  |  |  |  |  |  |  |  | 
C/C=C/C=C/c1cc2cc3c(c(O)c2c(=O)[nH]1)C1(CC3)C(O)=c2c(=O)c3c(=O)cc(OC)c(=O)c=3c(=O)c2=C1O (stereo unspecified) |  |  |  | 2.28 µM | 16.3 µM and 9.83 µM | 3.68 µM and 15.1 µM | 11.3 µM and 8.37 µM |  |  |  |  | 15.8 µM |  |  | 0.17 µM and 1.37 µM |  | 0.311 µM and 1.08 µM |  | 0.415 µM | 
Cc1nc2c(C)ccc([N+](=O)[O-])c2c(NCCCN(C)C)c1C | > 100 µM | 27.2 µM | > 100 µM | > 100 µM | > 100 µM | > 54.2 µM | > 100 µM | > 100 µM |  |  |  | > 100 µM |  |  |  |  |  |  |  | 
C=CCNC(=S)NNC(=O)c1c(C)nc2sccn12 | > 100 µM | > 100 µM | > 100 µM | > 100 µM |  | > 100 µM |  | > 100 µM |  |  |  |  |  |  |  |  |  |  |  | 
CC(=O)CCC1(c2ccccc2)OC(=O)C(C#N)=C1c1ccccc1 (stereo unspecified) |  | > 100 µM | > 100 µM | > 100 µM | > 100 µM | > 100 µM | > 100 µM | > 100 µM |  |  |  |  |  |  |  |  |  |  |  | 
Cc1cc(Cl)ccc1N=C1NC(=O)C(CC(=O)Nc2cccc(Cl)c2)S1 (stereo unspecified) |  | > 100 µM | > 100 µM | 69.8 µM | > 100 µM | > 100 µM | > 100 µM |  |  |  |  |  |  |  |  |  |  |  |  | 
COC(=O)c1c(C)nc(C)c2c1C(=O)C(Br)=C(NCc1ccccc1)C2=O |  | 2.85 µM | 7.22 µM | 5.78 µM | 10.7 µM | 8.26 µM | 3 µM | 10.8 µM |  | 2.5 µM | 4.26 µM | 13 µM | 4.09 µM | 15.4 µM | 2.41 µM | 2.76 µM | 1.55 µM | 1.47 µM | 2.46 µM | 3.09 µM
C[N+](C)(C)CC1CCC(C[N+](C)(C)C)C1=NO (stereo unspecified) | > 100 µM | > 100 µM | > 100 µM |  | > 100 µM | > 100 µM | > 100 µM | > 100 µM |  |  |  |  |  |  |  |  |  |  |  | 
Cc1c(Cl)ccc2c1NC(=O)C2(O)CC(=O)c1ccc(Cl)cc1 (stereo unspecified) | > 57.1 µM | > 100 µM | > 54 µM | > 100 µM | > 100 µM | > 60.1 µM | > 100 µM | 63.7 µM |  |  |  |  |  |  |  |  |  |  |  | 
Clc1ccc(C=Nc2ccc(-c3nc4ccccc4[nH]3)cc2)cc1 |  | > 100 µM | > 100 µM | > 100 µM | > 100 µM | > 100 µM | > 100 µM |  |  | > 100 µM | > 100 µM | > 100 µM | > 100 µM | > 100 µM | > 100 µM | > 100 µM | > 100 µM | 45 µM | 89.1 µM | 
COc1cc2ncn(-c3cc(OCc4ccccc4C(F)(F)F)c(C(N)=O)s3)c2cc1OC |  | > 25 µM | > 25 µM | 10.5 µM | > 25 µM | > 25 µM | > 25 µM | > 25 µM |  | 0.246 µM | 0.0924 µM | 0.407 µM | 1.64 µM | > 19.5 µM | > 18.4 µM | 0.211 µM | > 23.5 µM | 0.106 µM | 2.2 µM | 0.13 µM
N#C/C(=C\c1ccc(O)cc1)C(N)=O |  | > 100 µM | > 100 µM | > 100 µM | > 100 µM | > 100 µM | > 100 µM | > 100 µM |  |  |  |  |  |  |  |  |  |  |  | 
O=[N+]([O-])c1ccccc1N=Nc1c(O)[nH]c2c(Cl)cccc12 | > 69.6 µM | > 46.5 µM | > 66.6 µM |  | > 67.2 µM | > 100 µM | 24.8 µM | > 100 µM |  |  |  | > 79.2 µM |  | > 82.3 µM |  |  |  |  |  | 
CCOc1ccc(NC(=O)CC2SC(=Nc3ccc(C)cc3)NC2=O)cc1 (stereo unspecified) | > 100 µM | > 100 µM | > 100 µM |  | > 100 µM | > 100 µM | > 100 µM | 77.6 µM |  |  |  |  |  |  |  |  |  |  |  | 
